Source: PMC12382740, “In Vitro and In Vivo Characterization of Novel Cathelicidin-Based Peptides with Antimicrobial Activity Against Pseudomonas aeruginosa” (Antibiotics, 2025)
Where two headings read alike, the source gives them in different places. Bridge positions count the residues as written; N and C are the ends. Ends that are not written are not given here. Peptide text beside a SMILES is read from it.

Assays:
Assay type in all cases: cell-based, Pseudomonas aeruginosa
[1] = tested on: Colistin-Resistant P. aeruginosa
Experimental: (§1) The antimicrobial activity of the peptides was tested against a collection of P. aeruginosa, selected by their resistance or susceptibility to colistin and/or classified as MDR strains. The origin of the strains was either clinical, relevant to the current clinical situation, or commercial strains belonging to the American Type Culture Collection (ATCC, Manassas, VA, USA), which complemented the collection for comparison and control. For the initial activity screening of the 17 peptides, we tested them against P. aeruginosa ATCC strains 1211007 and 1211101. Both strains are multidrug-resistant; however, the key difference is that strain 1211007 is susceptible to colistin, whereas strain 1211101 is resistant to colistin.
(§2) Minimum Inhibitory Concentration (MIC) of the antimicrobial agents against bacterial strains was obtained through broth microdilution assays following a protocol based on the Clinical & Laboratory Standards Institute’s guidelines. Modifications regarding microplate material and broth were included when testing the peptides’ activity and are detailed below. Colistin MICs were obtained following recommendations of the joint CLSI-EUCAST Polymyxin Breakpoints Working Group using Cation Adjusted Mueller-Hinton Broth (90922, 500 g Sigma-Aldrich®, St. Louis, MO, USA), and strains Escherichia coli 13846 (mcr-1 positive) and P. aeruginosa ATCC 27853 were used as quality controls in all assays. Bacteria were cultured in Columbia Agar plates (Columbia Agar with 5% Sheep Blood 90 mm Stacker plates, Becton Dickinson, Franklin Lakes, NJ, USA) and incubated overnight at 37 °C. Polypropylene round-bottomed 96-well plates (-96-well Polypropylene Storage Microplates, 267334, Thermo Fischer Scientific, Waltham, MA, USA) were used to prevent peptide binding to plate walls. AST broth (BD Phoenix™ AST broth, 8 mL, 246003, Becton Dickinson, Franklin Lakes, NJ, USA) was used when testing the peptides’ activity. […] Three biological and technical replicates were performed per strain.

[2] = tested on: Colistin Susceptible P. aeruginosa
Experimental: as §1, §2

[3] = tested on: P. aeruginosa strain panel; settings: for MIC50 / MIC90: panel of 15 P. aeruginosa strains
Experimental: as §1, §2

[4] = colistin-resistant P. aeruginosa
[5] = colistin-resistant P. aeruginosa, value in brackets
[6] = colistin-susceptible P. aeruginosa
[7] = colistin-susceptible P. aeruginosa, value in brackets

| Compound | MIC [1, 5] [µM] | MIC [2, 6] [µg/mL] | MIC [2, 7] [µM] | MIC ([1]; Colistin-Resistant) [µg/mL] | MIC ([2]; Colistin Susceptible) [µg/mL] | other results |
| --- | --- | --- | --- | --- | --- | --- |
| CC[C@H](C)[C@@H]1NC(=O)[C@@H](NC(=O)[C@@H](NC(=O)[C@@H]2CCCN2C(=O)[C@H](Cc2ccccc2)NC(=O)[C@H](Cc2c[nH]cn2)NC(=O)[C@@H](NC(=O)[C@@H](N)CC(=O)O)[C@@H](C)O)[C@@H](C)CC)CSSC[C@@H](C(=O)N[C@@H](CCCCN)C(=O)N[C@H](C(=O)O)[C@@H](C)O)NC(=O)[C@@H]2CSSC[C@@H]3NC(=O)[C@@H]4CSSC[C@H](NC(=O)[C@H](Cc5ccccc5)NC1=O)C(=O)N[C@@H](CSSC[C@H](NC(=O)[C@H](CCCCN)NC(=O)[C@H](CO)NC(=O)[C@H](CCCNC(=N)N)NC(=O)[C@H](Cc1c[nH]cn1)NC3=O)C(=O)NCC(=O)N[C@@H](CCSC)C(=O)N2)C(=O)NCC(=O)N4 [Hepcidin] | > 92 | > 256 | > 92 | – | – | MIC [1, 4]: > 256 µg/mL |
| CC[C@H](C)[C@@H]1NC(=O)[C@@H]2CSSC[C@@H]3NC(=O)[C@H](Cc4ccccc4)NC(=O)[C@H](C)NC(=O)[C@H](Cc4c[nH]c5ccccc45)NC(=O)[C@H](CC(C)C)NC(=O)[C@H](CCCNC(=N)N)NC(=O)CNC(=O)[C@H](CCC(N)=O)NC(=O)[C@H](Cc4ccc(O)cc4)NC(=O)[C@H]([C@@H](C)CC)NC(=O)[C@H](CSSC[C@H](NC(=O)[C@H](Cc4ccc(O)cc4)NC(=O)[C@@H](N)CSSC[C@@H](C(=O)O)NC3=O)C(=O)N[C@@H](CCCNC(=N)N)C(=O)N[C@@H]([C@@H](C)CC)C(=O)N3CCC[C@H]3C(=O)N[C@@H](C)C(=O)N2)NC(=O)[C@H]([C@@H](C)O)NC(=O)CNC(=O)[C@H](Cc2ccc(O)cc2)NC(=O)[C@H](CCCNC(=N)N)NC(=O)[C@H](CCCNC(=N)N)NC(=O)[C@H](CCC(=O)O)NC(=O)CNC(=O)[C@H](C)NC1=O [α-defensin 2] (H-CYCRIPACIAGERRYGTCIYQGRLWAFCC-OH; disulfide 1-29, 3-18, 8-28; N-terminus and C-terminus assumed) | > 15 | – | > 15 | > 50 | > 50 | – |
| CC[C@H](C)[C@@H]1NC(=O)[C@H](CCC(=O)O)NC(=O)[C@@H]2CSSC[C@@H]3NC(=O)[C@H](Cc4ccc(O)cc4)NC(=O)[C@@H](NC(=O)[C@@H](NC(=O)[C@H](C)N)[C@@H](C)O)CSSC[C@@H](C(=O)N[C@@H](CCCNC(=N)N)C(=O)O)NC(=O)[C@H](CSSC[C@H](NC(=O)[C@H](CCCNC(=N)N)NC(=O)CNC(=O)[C@H]([C@@H](C)O)NC(=O)[C@H](CCCNC(=N)N)NC3=O)C(=O)N[C@@H](C)C(=O)N[C@@H]([C@@H](C)O)C(=O)N[C@@H](CCCNC(=N)N)C(=O)N[C@@H](CCC(=O)O)C(=O)N[C@@H](CO)C(=O)N[C@@H](CC(C)C)C(=O)N[C@@H](CO)C(=O)NCC(=O)N[C@@H](C(C)C)C(=O)N2)NC(=O)[C@H](CC(C)C)NC(=O)[C@H](CCCNC(=N)N)NC(=O)[C@H](Cc2ccc(O)cc2)NC(=O)[C@H](CC(C)C)NC(=O)[C@H](CCCNC(=N)N)NC(=O)CNC(=O)[C@H](CO)NC1=O [α-defensin 5] (H-ATCYCRTGRCATRESLSGVCEISGRLYRLCCR-OH; disulfide 3-31, 5-20, 10-30; N-terminus and C-terminus assumed) | – | 50 | 14 | – | – | – |
| CC[C@H](C)[C@@H]1NC(=O)CNC(=O)[C@H](CCSC)NC(=O)[C@H](C(C)C)NC(=O)[C@H]([C@@H](C)O)NC(=O)[C@@H]2CSSC[C@@H]3NC(=O)[C@H](Cc4c[nH]cn4)NC(=O)[C@@H](NC(=O)[C@@H](NC(=O)[C@H](Cc4ccccc4)NC(=O)[C@H](C)N)[C@@H](C)O)CSSC[C@@H](C(=O)N[C@@H](CC(C)C)C(=O)O)NC(=O)[C@H](CSSC[C@H](NC(=O)[C@H](CO)NC(=O)[C@H](CCCNC(=N)N)NC(=O)[C@H](CCCNC(=N)N)NC3=O)C(=O)N[C@@H](Cc3ccc(O)cc3)C(=O)N[C@@H](CO)C(=O)N[C@@H]([C@@H](C)O)C(=O)N[C@@H](CCC(=O)O)C(=O)N[C@@H](Cc3ccc(O)cc3)C(=O)N[C@@H](CO)C(=O)N[C@@H](Cc3ccc(O)cc3)C(=O)NCC(=O)N[C@@H]([C@@H](C)O)C(=O)N2)NC(=O)[C@H](Cc2ccccc2)NC(=O)[C@H](CCCNC(=N)N)NC(=O)[C@H](Cc2c[nH]cn2)NC(=O)[C@H](CC(N)=O)NC1=O [α-defensin 6] | > 13 | – | > 13 | > 50 | > 50 | – |
| AKKVFKRLEKLFSKIQNDK [HP 2-20] | > 110 | > 256 | > 110 | – | – | MIC [1, 4]: > 256 µg/mL |
| Colistin [reference compound] | 28 | 0.75 | 0.7 | – | – | MIC [1, 4]: 32 µg/mL; MIC50 [3]: ≤ 0.125 µg/mL; MIC90 [3]: 64 µg/mL; MIC50 ([3]; value in brackets): ≤ 0.11 µM; MIC90 ([3]; value in brackets): 55 µM; MIC ([3]; strain 12-1110 S1): ≤0.125 µg/mL; MIC ([3]; strain 15-0307 S4): ≤0.125 µg/mL; MIC ([3]; strain 15-0803 S3): ≤0.125 µg/mL; MIC ([3]; strain 21-0308 R2): 64 µg/mL; MIC ([3]; strain 21-0410 S5): ≤0.125 µg/mL; MIC ([3]; strain 21-0505 S2): ≤0.125 µg/mL; MIC ([3]; strain 36a): 0.25 µg/mL; MIC ([3]; strain 38a): ≤0.125 µg/mL; MIC ([3]; strain 27853): ≤0.125 µg/mL; MIC ([3]; strain 16359347-2 R3): 64 µg/mL; MIC ([3]; strain C1): 0.25 µg/mL; MIC ([3]; strain C2): 0.5 µg/mL; MIC ([3]; strain C3): ≤0.125 µg/mL; MIC ([3]; strain C4): 0.25 µg/mL; MIC ([3]; strain C5): ≤0.125 µg/mL |
| GIGDPVTCLKSGAICHPVFCPRRYKQIGTCGLPGTKCCKKP (disulfide 8-37, 15-30, 20-38) [β-defensin 2] | > 12 | > 50 | > 12 | – | – | MIC [1, 4]: > 50 µg/mL |
| GIINTLQKYYCRVRGGRCAVLSCLPKEEQIGKCSTRGRKCCRRKK (disulfide 11-40, 18-33, 23-41) [β-defensin 3] | > 10 | – | > 10 | > 50 | > 50 | – |
| GLLRKGGEKIGEKLKKIGQKIKNFFQKLVPQPEQ [CRAMP] | 8 | – | – | 32 | – | – |
| GLVRKGGEKFGEKLRKIGQKIKEFFQKLALEIEQ [r-CRAMP] | 16 | – | > 65 | 64 | > 256 | – |
| ISRLAGLLRKGGEKIGEKLKKIGQKIKNFFQKLVPQPEQ [CRAMP 1-39] | 7 | – | – | 32 | – | – |
| KYYGNGVSCNKKGCSVDWGKAIGIIGNNSAANLATGGAAGWSK (disulfide 9-14) [Mundticin] | > 60 | – | > 60 | > 256 | > 256 | – |
| RRRPRPPYLPRPRPPPFFPPRLPPRIPPGFPPRFPPRFP-NH2 (C-terminus assumed) [PR39] | 7 | – | 14 | – | – | – |
| SSLLEKGLDGAKKAVGGLGKLGKDAVEDLESVGKGAVHDVKDVLDSVL [Dermicidin] | > 53 | – | > 53 | > 256 | > 256 | – |
